In one assay the target is T1, hS1P1 receptors (Homo sapiens, UniProt P21453).
T1 construct: expressed in transfected cells; host or cells: CHO cells (Geneticin-selected)
The assay is described as follows: Intracellular Ca2+ mobilization in CHO cells expressing human S1P receptors (hS1P1). The format is cell-based. The conditions noted are these: read-out: S1P1 (EC50 class, intracellular Ca2+ mobilization). The method, then: (§1) Test for the Ability of Test Compounds to Induce Intracellular Ca^2+ Mobilization in Cells Expressing Human S1P (Sphingosine-1-Phosphate) Receptors
(§2) CHO cells expressing human S1P receptors (i.e., CHO cells expressing hS1P1 receptors or hS1P3 receptors) were subcultured on Ham's F-12 medium supplemented with 10% fetal bovine serum and 200 μg/mL Geneticin. The cells were seeded on a 96-well black clear bottom plate (COSTAR) at 4×10^4 cells/well and were cultured overnight at 37° C. in 5% CO2. A fluorescent reagent that emits fluorescence upon binding to Ca^2+ (Calcium Screening Kit (DOJINDO)) was added to the culture and the cells were further cultured for 60 min at 37° C. in 5% CO2. After culturing, microplate spectrofluorometer (FLEX station, MOLECULAR DEVICE) was used to measure the fluorescence intensity at an excitation wavelength of 485 nm and a detection wavelength of 525 nm. S1P or a test compound adjusted with cultural medium to a concentration 10 times higher than the final concentration (final DMSO concentration=0.1%). Each test compound solution was added 18 sec. after beginning of the measurement of fluorescence. The fluorescence intensity was measured every 1.5 sec for 100 sec. For each test compound, the difference between the maximum fluorescence intensity and the minimum fluorescence intensity (i.e., increase in fluorescence) was determined from the measurements. The rate of fluorescence increase (%) for each test compound was calculated by the difference (100%) of the fluorescence increase between solvent only and S1P (10^−6M). Using this value as an index of the ability of the test compound to induce intracellular Ca^2+ mobilization, EC50 was determined by PRISM software (GraphPad).

A further assay deals with T2, hS1P3 receptors (Homo sapiens, UniProt Q99500).
T2 construct: expressed in transfected cells; host or cells: CHO cells (Geneticin-selected)
The assay is described as follows: Intracellular Ca2+ mobilization in CHO cells expressing human S1P receptors (hS1P3). It is filed as cell-based. Particulars: read-out: S1P3 (EC50 class, intracellular Ca2+ mobilization). The method, then:
as §1, §2

Assay [1] concerns host vs. graft rejection in mice. Description: Inhibitory effects on host vs. graft rejection in mice (right popliteal lymph node weight). The format is in vivo, C3H/HeN mice. Particulars: Mus musculus. The method, then: Inhibitory Effects of Test Compounds on Host Vs. Graft Rejection in Mice
This experiment was performed according to the method described in Transplantation 55(3) (1993): 578-591. Spleens were collected from 6 to 16 week old male BALB/c mice (CHARLES RIVER JAPAN). The spleens were placed in an RPMI-1640 medium (SIGMA) and were gently pressed between two slide glasses and then passed through a cell strainer (70 μm, Falcon) to form a cell suspension. The suspension was then centrifuged and the supernatant was discarded. An ammonium chloride-Tris isotonic buffer was added to the suspension to lyse erythrocytes. The cells were then centrifuged three times in RPMI-1640 medium for washing and were resuspended in an RPMI-1640 medium. To this suspension, mitomycin C (KYOWA HAKKO KOGYO Co., Ltd.) was added to a final concentration of 25 μg/mL and the suspension was incubated for 30 minutes at 37° C. in a 5% CO2 atmosphere. The cells were centrifuged three times in RPMI-1640 medium for washing and were resuspended in an RPMI-1640 medium so that the medium would contain 2.5×10^8 cells/mL. This suspension served as a “stimulation cell suspension.” Using a 27 G needle with a microsyringe (Hamilton), 20 μL (5×10^6 cells/mouse) of the stimulation cell suspension was subcutaneously injected into the right hind footpad of 6 to 8 week old male C3H/HeN mice (CLEA JAPAN). Normal control group was injected with RPMI-1640 medium alone. 4 days after the injection, right popliteal lymph nodes were collected and were weighed on a Mettler AT201 electronic scale (METTLER TOLEDO Co., Ltd.). Each animal was intraperitoneally administered a test compound once a day for four consecutive days starting on the day of the injection of the stimulation cells (i.e., total of 4 times). Control groups were administered the same vehicle as that used in the preparation of each test compound. The inhibition (%) was determined using the following formula {[Weight of right popliteal lymph nodes of positive control group]−[Weight of right popliteal lymph nodes of test compound group]×100}/{[Weight of right popliteal lymph nodes of positive control group]−[Weight of right popliteal lymph nodes of normal control group]} Formula 1

For the next assay, the target named is T3, hS1P4 receptors (Homo sapiens, UniProt O95977).
T3 construct: expressed in transfected cells; host or cells: CHO cells (Geneticin-selected)
T3 sequence (O95977 1-384): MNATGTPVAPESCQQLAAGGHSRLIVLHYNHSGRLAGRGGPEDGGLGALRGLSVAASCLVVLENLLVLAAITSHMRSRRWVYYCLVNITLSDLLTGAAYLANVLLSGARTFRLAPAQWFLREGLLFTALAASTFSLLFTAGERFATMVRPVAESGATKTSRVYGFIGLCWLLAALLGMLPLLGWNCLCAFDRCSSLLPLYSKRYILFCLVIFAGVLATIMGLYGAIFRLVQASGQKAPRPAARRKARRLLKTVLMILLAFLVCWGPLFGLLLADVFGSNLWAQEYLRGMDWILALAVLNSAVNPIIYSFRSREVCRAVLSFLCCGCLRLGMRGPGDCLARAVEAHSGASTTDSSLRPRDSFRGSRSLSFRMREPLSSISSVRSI
Description: Activation of extracellular regulatory kinase (ERK) in CHO cells expressing hS1P4 receptors. The format is cell-based. The method, then: Test for the Ability of Test Compounds to Induce Activation of Extracellular Regulatory Kinase (ERK) in Cells Expressing Human S1P Receptors
CHO cells expressing human S1P receptors (i.e., CHO cells expressing hS1P4 receptors) were subcultured on Ham's F-12 medium supplemented with 10% fetal bovine serum and 200 μg/mL Geneticin. The cells were seeded on a 6-well cell culture plate (COSTAR) at 3×10^5 cells/well and were cultured overnight at 37° C. in 5% CO2. On the following day, the medium was replaced with FBS-free Ham's F-12 medium (containing 0.1% fatty acid-free bovine serum albumin) and the cells were cultured overnight at 37° C. in 5% CO2. S1P or a test compound adjusted with Ham's F-12 medium (with 0.1% fatty acid-free bovine serum albumin) to a concentration 10 times higher than the final concentration (final DMSO concentration=0.1%). Each test compound solution was added to this culture plate. The cells were cultured for 5 min at 37° C. in 5% CO2. The medium was removed and the cells were washed with a 200 μmol/L ice-cold PBS containing Na3VO4. A lysis buffer (20 mmol/L Tris-HCl pH 7.5, 1% Triton X-100, 1 mmol/L EDTA, 1 mmol/L EGTA, 0.5 mmol/L Na3VO4, 0.1% β-mercaptoethanol, 50 mmol/L NaF, 5 mmol/L Na4O7P3, 10 mmol/L C3H7O6Na, 1 μmol/L Microcystin LR, 1× Complete Protease Inhibitor Cocktail (ROCHE)) was then added to the cells and the reaction was carried out on ice for 5 min to lyse the cells. The cell lysate was subjected to sodium dodecyl sulfate-polyacrylamide gel electrophoresis (SDS-PAGE) to separate proteins. The proteins were transferred to a PVDF membrane (Hybond-P, Amersham Biosciences). The membrane was reacted overnight at 4° C. with anti-phospho ERK (p42/44 MAPK) monoclonal antibody (E10, Cell Signaling Technologies) diluted 1000-fold, and was subsequently reacted for 1 hour at room temperature with alkaline phosphatase-labeled anti-mouse IgG antibody (Molecular Probe) diluted 6000-fold. After washing with 20 mmol/L Tris-HCl and 150 mmol/L NaCl solution, the PVDF membrane was fluorostained with DDAO phosphate (DyeChrome Western Blot Stain Kit, Molecular Probe), a fluorescent substrate of alkaline phosphatase. The fluorescence was detected using a variable image analyzer (Typhoon 8600, Amersham Biosciences). The detected signal of phosphorylated ERK was quantified using ImageQuant software (Molecular Dynamics). The rate of ERK activation (%) for each test compound was calculated by the difference (100%) of the signal intensity between solvent only and S1P (10^−6 mol/L).

Data on nine compounds can be found in patent US7759326B2, “Aminophosphonic acid derivative, salt thereof, and modulator of S1P receptor” (Kyorin Pharmaceutical Co., Ltd., priority 2003, dated 2010).

Where a name gives a salt, the structure may show the parent alone.

T2 sequence (Q99500 whole entry): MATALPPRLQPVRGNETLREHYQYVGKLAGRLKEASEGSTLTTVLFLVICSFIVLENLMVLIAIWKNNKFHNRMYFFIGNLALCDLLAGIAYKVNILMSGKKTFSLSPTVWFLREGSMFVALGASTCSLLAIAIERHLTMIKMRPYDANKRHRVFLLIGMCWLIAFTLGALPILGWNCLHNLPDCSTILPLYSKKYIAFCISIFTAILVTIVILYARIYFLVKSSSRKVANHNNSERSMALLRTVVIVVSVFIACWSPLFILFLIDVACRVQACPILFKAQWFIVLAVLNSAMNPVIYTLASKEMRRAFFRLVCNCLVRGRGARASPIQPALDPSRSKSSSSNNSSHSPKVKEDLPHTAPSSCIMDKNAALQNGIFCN
T1 sequence (P21453 whole entry): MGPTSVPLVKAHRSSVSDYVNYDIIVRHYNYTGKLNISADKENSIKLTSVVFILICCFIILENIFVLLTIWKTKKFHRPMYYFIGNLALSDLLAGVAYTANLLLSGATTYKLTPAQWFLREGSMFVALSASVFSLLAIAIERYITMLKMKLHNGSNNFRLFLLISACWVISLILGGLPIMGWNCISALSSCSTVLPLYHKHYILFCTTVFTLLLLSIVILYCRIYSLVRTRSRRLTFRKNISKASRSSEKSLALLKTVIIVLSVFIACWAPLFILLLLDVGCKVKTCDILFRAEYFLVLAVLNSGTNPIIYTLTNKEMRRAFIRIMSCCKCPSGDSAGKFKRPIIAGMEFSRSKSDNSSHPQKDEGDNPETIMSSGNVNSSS

Regarding `NC(/C=C/P(=O)(O)O)CCCc1ccc(Sc2cccc(OCc3ccccc3)c2)cc1Cl` (stereo not shown) [Example 242, 3-amino-6-[4-(3-benzyloxyphenylthio)-2-chlorophenyl]-1-hexenylphosphonic acid], the figures for the EC50 at hS1P1 receptors and on hS1P3 receptors were 100 to 1000 nM and at least 1000 nM, respectively. For the same compound, the inhibition in vivo at 10 mg/kg in assay [1] came to 62%.

Take `NC(CCCc1ccc(Sc2cccc(OCc3ccccc3)c2)cc1Cl)CCP(=O)(O)O` (stereo not shown) [Example 241, 3-amino-6-[4-(3-benzyloxyphenylthio)-2-chlorophenyl]hexylphosphonic acid]: the EC50 at hS1P1 receptors was 100 to 1000 nM; on hS1P3 receptors, at least 1000 nM. The compound further returned an inhibition in vivo at 10 mg/kg in assay [1] of 46%.

In turn, `CCOP(=O)(CCC(N)CCCc1ccc(Sc2cccc(OCc3ccccc3)c2)cc1Cl)OCC` (stereo not shown) [Example 235, Diethyl 3-amino-6-[4-(3-benzyloxyphenylthio)-2-chlorophenyl]hexylphosphonate hydrochloride] showed an inhibition in vivo at 30 mg/kg in assay [1] of 56%.

`NC(CO)(CCc1ccc(Sc2cccc(OCc3ccccc3)c2)cc1Cl)COP(=O)(O)O` (stereo not shown) [Example 237, 2-amino-4-[4-(3-benzyloxyphenylthio)-2-chlorophenyl]-2-hydroxymethylbutylphosphonate monoester]: the EC50 at hS1P1 receptors and at hS1P3 receptors was under 10 nM in each case. The “Induction effect of ERK activation on hS1P-expressing CHO cells (Activation rate (%) relative to the activated ERK at S1P10-6 mol/L)” value on hS1P4 receptors (Compound Conc. 1 nmol/L) amounted to 35.8%; on hS1P4 receptors (Compound Conc. 10 nmol/L), 80.7%. Moreover, in assay [1] (Dose 0.1 mg/kg), 0.1 mg/kg produced 75% inhibition in vivo.

For `NC(CO)(CCCc1ccc(Sc2cccc(OCc3ccccc3)c2)cc1Cl)COP(=O)(O)O` (stereo not shown) [Example 236, 2-amino-5-[4-(3-benzyloxyphenylthio)-2-chlorophenyl]-2-hydroxymethylpentylphosphonate monoester], the EC50 on hS1P1 receptors and at hS1P3 receptors was 10 to 100 nM in each case. For the same compound, the “Induction effect of ERK activation on hS1P-expressing CHO cells (Activation rate (%) relative to the activated ERK at S1P10-6 mol/L)” value at hS1P4 receptors (Compound Conc. 1 nmol/L) came to 8.0%; at hS1P4 receptors (Compound Conc. 10 nmol/L), 119.5%. Further, testing at 0.03 mg/kg in assay [1] gave an inhibition in vivo of 73%.

In turn, `COP(=O)(OC)OCC(C)(CCc1ccc(Sc2cccc(OCc3ccccc3)c2)cc1Cl)NC(=O)OC(C)(C)C` (single isomer, unassigned; (+)) [Example 247, (+)-4-[4-(3-benzyloxyphenylthio)-2-chlorophenyl]-2-t-butoxycarbonylamino-1-dimethoxyphosphoryloxy-2-methylbutane] yielded an inhibition in vivo at 0.03 mg/kg in assay [1] of 63%.

For `CCOP(=O)(C=CC(N)CCCc1ccc(Sc2cccc(OCc3ccccc3)c2)cc1Cl)OCC` (stereo not shown) [Example 233, Diethyl 3-amino-6-[4-(3-benzyloxyphenylthio)-2-chlorophenyl]-1-hexenylphosphonate hydrochloride], in assay [1], the inhibition in vivo at 30 mg/kg came out at 53%.

As for `CC(N)(CCCc1ccc(Sc2cccc(OCc3ccccc3)c2)cc1Cl)COP(=O)(O)O` (single isomer, unassigned; (+)) [Example 239, (+)-2-amino-5-[4-(3-benzyloxyphenylthio)-2-chlorophenyl]-2-methylpentylphosphonate monoester], the EC50 at hS1P1 receptors and at hS1P3 receptors was under 10 nM throughout. Also, 0.03 mg/kg produced 65% inhibition in vivo in assay [1].

`NC(CO)(CCCc1ccc(Sc2cccc(O)c2)cc1Cl)COP(=O)(O)O` (stereo not shown) [Example 238, 2-amino-5-[2-chloro-4-(3-hydroxyphenylthio)phenyl]-2-hydroxymethylpentylphosphonate monoester]: the EC50 is 100 to 1000 nM at hS1P1 receptors and at least 1000 nM on hS1P3 receptors. The same compound registered an inhibition in vivo at 3 mg/kg in assay [1] (Dose 3 mg/kg) of 65%.
